Reference: patent publication US20240209028A1, “CNP COMPOUNDS” (priority 2022, published 2024)
Starred links: 1 amine or outer side, 2 acyl side, 3 side chain; linkers in the order of their positions; H or OH if unused. Positions of bridges follow the written chain, without caps; N, C: chain ends. Residues, ends and D or L forms follow the SMILES beside them. *: point of attachment. C20 diacid = O=C(O)CCCCCCCCCCCCCCCCCCC(=O)*; C18 diacid = O=C(O)CCCCCCCCCCCCCCCCC(=O)*; γGlu = O=C(O)[C@H](CCC(=O)[*:2])N[*:1]; AEEA = NCCOCCOCC(=O)O

These molecules were tested against T1, human natriuretic peptide receptor 2 (hNPR2) (Homo sapiens, UniProt P20594) (assay: In vitro hNPR2 activity assay (cGMP GloSensor reporter, HEK293)). Settings: 0% HSA; HEK293-hNPR2/GloSensor cells.
T1 construct: expressed in transfected cells; host or cells: HEK293 (ATCC CRL-1573), clone 35, co-transfected with pGloSensor-42F
T1 sequence (P20594 23-1047): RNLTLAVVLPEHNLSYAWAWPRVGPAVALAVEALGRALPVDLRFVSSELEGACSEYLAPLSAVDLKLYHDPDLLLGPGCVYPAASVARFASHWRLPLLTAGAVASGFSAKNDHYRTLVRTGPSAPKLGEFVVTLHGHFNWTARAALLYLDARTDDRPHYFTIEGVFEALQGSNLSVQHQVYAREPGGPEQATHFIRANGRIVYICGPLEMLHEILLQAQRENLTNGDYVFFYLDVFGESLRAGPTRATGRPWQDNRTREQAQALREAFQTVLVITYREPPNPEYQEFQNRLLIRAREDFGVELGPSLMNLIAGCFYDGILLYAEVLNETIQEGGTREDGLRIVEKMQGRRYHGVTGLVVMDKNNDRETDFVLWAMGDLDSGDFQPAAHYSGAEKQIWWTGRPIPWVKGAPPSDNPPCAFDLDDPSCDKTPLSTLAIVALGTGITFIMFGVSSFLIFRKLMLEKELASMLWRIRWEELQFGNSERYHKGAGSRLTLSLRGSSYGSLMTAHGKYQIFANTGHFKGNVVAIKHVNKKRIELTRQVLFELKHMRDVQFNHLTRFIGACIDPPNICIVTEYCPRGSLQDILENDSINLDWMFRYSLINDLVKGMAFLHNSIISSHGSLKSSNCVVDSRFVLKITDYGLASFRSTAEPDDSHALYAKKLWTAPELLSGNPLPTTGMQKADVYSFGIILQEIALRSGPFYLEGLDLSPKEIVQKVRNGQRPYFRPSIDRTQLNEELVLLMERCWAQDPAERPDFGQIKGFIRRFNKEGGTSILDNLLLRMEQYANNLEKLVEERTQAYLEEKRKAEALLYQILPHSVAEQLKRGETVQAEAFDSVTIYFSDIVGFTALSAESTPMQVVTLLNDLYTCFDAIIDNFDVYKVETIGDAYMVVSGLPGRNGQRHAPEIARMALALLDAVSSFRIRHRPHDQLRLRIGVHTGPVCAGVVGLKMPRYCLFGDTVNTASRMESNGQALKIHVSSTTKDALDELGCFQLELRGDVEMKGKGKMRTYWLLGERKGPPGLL
Format: cell-based
How it was run: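 Potency is the EC50 from a four-parameter logistic fit, also expressed relative to the in-plate CNP22 control (×100), with at least two replicates. Compounds (ten concentrations, […], HSA-free diluent with 1% OVA, 0.01% Tween20) were incubated 30 min at 37 °C on HEK293 cells co-expressing hNPR2 and a GloSensor cGMP luciferase. Luminescence detected with Bright-Glo.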
`CC[C@H](C)[C@@H]1NC(=O)[C@H](CCCNC(=N)N)NC(=O)[C@H](CC(=O)O)NC(=O)[C@H](CC(C)C)NC(=O)[C@H](CCCCN)NC(=O)[C@H](CC(C)C)NC(=O)CNC(=O)[C@H](Cc2ccccc2)NC(=O)[C@@H](NC(=O)CNC(=O)[C@H](CCCCN)NC(=O)[C@H](CO)NC(=O)[C@H](CC(C)C)NC(=O)CNC(=O)[C@H](CCCCN)NC(=O)[C@H](CCCCN)NC(=O)[C@H](CCC(N)=O)NC(=O)[C@H](C)NC(=O)CNC(=O)[C@H](CCCCN)NC(=O)[C@H](Cc2ccc(O)cc2)NC(=O)[C@H](CCCCN)NC(=O)[C@H](CCCNC(=N)N)NC(=O)[C@H](C)NC(=O)[C@H](CCC(N)=O)NC(=O)[C@@H]2CCCN2C(=O)[C@H](Cc2c[nH]cn2)NC(=O)[C@H](CCC(=O)O)NC(=O)[C@H](CCC(N)=O)NC(=O)COCCOCCNC(=O)COCCOCCNC(=O)CC[C@H](NC(=O)CC[C@H](NC(=O)CC[C@H](NC(=O)CC[C@H](NC(=O)CC[C@H](NC(=O)CC[C@H](NC(=O)CC[C@H](NC(=O)CC[C@H](NC(=O)CCCCCCCCCCCCCCCCC(=O)O)C(=O)O)C(=O)O)C(=O)O)C(=O)O)C(=O)O)C(=O)O)C(=O)O)C(=O)O)CSSC[C@@H](C(=O)O)NC(=O)CNC(=O)[C@H](CC(C)C)NC(=O)CNC(=O)[C@H](CO)NC(=O)[C@H](CC(C)C)NC(=O)[C@H](CO)NC(=O)CNC1=O` [compound 1401] gave an EC50 of 0.56 nM.

Same assay, conditions: potency relative to CNP22 (0065)
With `CC[C@H](C)[C@@H]1NC(=O)[C@H](CCCNC(=N)N)NC(=O)[C@H](CC(=O)O)NC(=O)[C@H](CC(C)C)NC(=O)[C@@H]2CCCN2C(=O)[C@H](CC(C)C)NC(=O)CNC(=O)[C@H](Cc2ccccc2)NC(=O)[C@@H](NC(=O)CNC(=O)[C@H](CCC(N)=O)NC(=O)[C@H](CO)NC(=O)[C@H](CO)NC(=O)CNC(=O)[C@H](CCCCN)NC(=O)[C@H](CCCCN)NC(=O)[C@H](CCC(N)=O)NC(=O)[C@H](C)NC(=O)CNC(=O)[C@H](CCCCN)NC(=O)[C@H](Cc2ccc(O)cc2)NC(=O)[C@H](Cc2c[nH]cn2)NC(=O)[C@H](CCCNC(=N)N)NC(=O)[C@H](C)NC(=O)[C@H](CCC(N)=O)NC(=O)[C@@H]2CCCN2C(=O)[C@H](Cc2c[nH]cn2)NC(=O)[C@H](CCC(=O)O)NC(=O)[C@H](CCC(N)=O)NC(=O)COCCOCCNC(=O)COCCOCCNC(=O)CC[C@H](NC(=O)CC[C@H](NC(=O)CC[C@H](NC(=O)CC[C@H](NC(=O)CCCCCCCCCCCCCCCCC(=O)O)C(=O)O)C(=O)O)C(=O)O)C(=O)O)CSSC[C@@H](C(=O)O)NC(=O)CNC(=O)[C@H](CC(C)C)NC(=O)CNC(=O)[C@H](CO)NC(=O)[C@H](CC(C)C)NC(=O)[C@H](CO)NC(=O)CNC1=O` [compound 1398] ({C18 diacid-γGlu-γGlu-γGlu-γGlu-AEEA-AEEA}-QEHPQARHYKGAQKKGSSQGCFGLPLDRIGSLSGLGC-OH; disulfide 21-37) the “hNPR2 0% HSA. [EC50% rel CNP]” value was 55.6%.
With `CC[C@H](C)[C@@H]1NC(=O)[C@H](CCCNC(=N)N)NC(=O)[C@H](CC(=O)O)NC(=O)[C@H](CC(C)C)NC(=O)[C@@H]2CCCN2C(=O)[C@H](CC(C)C)NC(=O)CNC(=O)[C@H](Cc2ccccc2)NC(=O)[C@@H](NC(=O)CNC(=O)[C@H](CCC(N)=O)NC(=O)[C@H](CO)NC(=O)[C@H](CO)NC(=O)CNC(=O)[C@H](CCCCN)NC(=O)[C@H](CCCCN)NC(=O)[C@H](CCC(N)=O)NC(=O)[C@H](C)NC(=O)CNC(=O)[C@H](CCCCN)NC(=O)[C@H](Cc2ccc(O)cc2)NC(=O)[C@H](Cc2c[nH]cn2)NC(=O)[C@H](CCCNC(=N)N)NC(=O)[C@H](C)NC(=O)[C@H](CCC(N)=O)NC(=O)[C@@H]2CCCN2C(=O)[C@H](Cc2c[nH]cn2)NC(=O)[C@H](CCC(=O)O)NC(=O)[C@H](CCC(N)=O)NC(=O)COCCOCCNC(=O)COCCOCCNC(=O)CC[C@H](NC(=O)CC[C@H](NC(=O)CC[C@H](NC(=O)CC[C@H](NC(=O)CCCCCCCCCCCCCCCCCCC(=O)O)C(=O)O)C(=O)O)C(=O)O)C(=O)O)CSSC[C@@H](C(=O)O)NC(=O)CNC(=O)[C@H](CC(C)C)NC(=O)CNC(=O)[C@H](CO)NC(=O)[C@H](CC(C)C)NC(=O)[C@H](CO)NC(=O)CNC1=O` [compound 1399] ({C20 diacid-γGlu-γGlu-γGlu-γGlu-AEEA-AEEA}-QEHPQARHYKGAQKKGSSQGCFGLPLDRIGSLSGLGC-OH; disulfide 21-37) the “hNPR2 0% HSA. [EC50% rel CNP]” value was 137.0%.
`CC[C@H](C)[C@@H]1NC(=O)[C@H](CCCNC(=N)N)NC(=O)[C@H](CC(=O)O)NC(=O)[C@H](CC(C)C)NC(=O)[C@H](CCCCN)NC(=O)[C@H](CC(C)C)NC(=O)CNC(=O)[C@H](Cc2ccccc2)NC(=O)[C@@H](NC(=O)CNC(=O)[C@H](CCCCN)NC(=O)[C@H](CO)NC(=O)[C@H](CC(C)C)NC(=O)CNC(=O)[C@H](CCCCN)NC(=O)[C@H](CCCCN)NC(=O)[C@H](CCC(N)=O)NC(=O)[C@H](C)NC(=O)CNC(=O)[C@H](CCCCN)NC(=O)[C@H](Cc2ccc(O)cc2)NC(=O)[C@H](CCCCN)NC(=O)[C@H](CCCNC(=N)N)NC(=O)[C@H](C)NC(=O)[C@H](CCC(N)=O)NC(=O)[C@@H]2CCCN2C(=O)[C@H](Cc2c[nH]cn2)NC(=O)[C@H](CCC(=O)O)NC(=O)[C@H](CCC(N)=O)NC(=O)COCCOCCNC(=O)COCCOCCNC(=O)CC[C@H](NC(=O)CC[C@H](NC(=O)CC[C@H](NC(=O)CC[C@H](NC(=O)CC[C@H](NC(=O)CC[C@H](NC(=O)CC[C@H](NC(=O)CC[C@H](NC(=O)CCCCCCCCCCCCCCCCC(=O)O)C(=O)O)C(=O)O)C(=O)O)C(=O)O)C(=O)O)C(=O)O)C(=O)O)C(=O)O)CSSC[C@@H](C(=O)O)NC(=O)CNC(=O)[C@H](CC(C)C)NC(=O)CNC(=O)[C@H](CO)NC(=O)[C@H](CC(C)C)NC(=O)[C@H](CO)NC(=O)CNC1=O` [compound 1401] was tested, and the “hNPR2 0% HSA. [EC50% rel CNP]” value was 19.7%.
